From the NIST ThermoML archive (doi:10.1021/je900689m)
± gives the expanded uncertainty stated by the source.

Tests used:
[1] = 101 kPa, Liquid; for viscosity: Capillary tube (Ostwald / Ubbelohde) method
[2] = xn = mol fraction of the nth substance listed; conditions: 101 kPa, Liquid; for viscosity: Capillary tube (Ostwald / Ubbelohde) method

CC(C)Cc1ccccc1 [(2-methylpropyl)benzene]
[1]
Conditions | mass density [kg/m3] | speed of sound [m/s] | viscosity [mPa·s]
303.15 K | 844.4 ± 0.7 | 1268 ± 6 | 0.905 ± 0.012
308.15 K | 841.1 ± 0.8 | 1252 ± 6 | 0.848 ± 0.012
313.15 K | 837.6 ± 0.8 | 1236 ± 6 | 0.784 ± 0.012

c1ccccc1 [benzene]
[1]
Conditions | mass density [kg/m3] | speed of sound [m/s] | viscosity [mPa·s]
303.15 K | 867.6 ± 0.7 | 1276 ± 6 | 0.569 ± 0.011
308.15 K | 863.2 ± 0.7 | 1252 ± 6 | 0.534 ± 0.011
313.15 K | 858.9 ± 0.7 | 1228 ± 6 | 0.497 ± 0.011

CCCCc1ccccc1 [butylbenzene]
[1]
Conditions | mass density [kg/m3] | speed of sound [m/s] | viscosity [mPa·s]
303.15 K | 851.3 ± 0.7 | 1308 ± 6 | 0.901 ± 0.012
308.15 K | 848 ± 0.7 | 1292 ± 6 | 0.844 ± 0.012
313.15 K | 844.6 ± 0.7 | 1276 ± 6 | 0.787 ± 0.012

CCOC=O [ethyl methanoate]
[1]
Conditions | mass density [kg/m3] | speed of sound [m/s] | viscosity [mPa·s]
303.15 K | 907.8 ± 0.7 | 1092 ± 5 | 0.373 ± 0.011
308.15 K | 902.6 ± 0.7 | 1072 ± 5 | 0.345 ± 0.01
313.15 K | 897.1 ± 0.7 | 1052 ± 5 | 0.324 ± 0.01

CCOC=O [ethyl methanoate] + c1ccccc1
[2]
Conditions | mass density, 303.15 K [kg/m3] | mass density, 308.15 K [kg/m3] | mass density, 313.15 K [kg/m3] | speed of sound, 303.15 K [m/s] | speed of sound, 308.15 K [m/s] | speed of sound, 313.15 K [m/s] | viscosity, 303.15 K [mPa·s] | viscosity, 308.15 K [mPa·s] | viscosity, 313.15 K [mPa·s]
x1 = 0.1089 | 870.4 ± 0.7 | 865.8 ± 0.7 | 861.3 ± 0.7 | 1252 ± 6 | 1228 ± 6 | 1208 ± 5 | 0.529 ± 0.011 | 0.499 ± 0.011 | 0.468 ± 0.011
x1 = 0.2169 | 873.5 ± 0.7 | 868.9 ± 0.7 | 864.3 ± 0.7 | 1228 ± 6 | 1208 ± 5 | 1188 ± 5 | 0.493 ± 0.011 | 0.46 ± 0.011 | 0.428 ± 0.011
x1 = 0.3189 | 876.9 ± 0.7 | 872.2 ± 0.7 | 867.5 ± 0.7 | 1208 ± 5 | 1188 ± 5 | 1168 ± 5 | 0.462 ± 0.011 | 0.431 ± 0.011 | 0.401 ± 0.011
x1 = 0.4239 | 880.8 ± 0.7 | 876 ± 0.7 | 871.2 ± 0.7 | 1188 ± 5 | 1168 ± 5 | 1148 ± 5 | 0.439 ± 0.011 | 0.408 ± 0.011 | 0.38 ± 0.011
x1 = 0.5253 | 884.9 ± 0.7 | 880.1 ± 0.7 | 875.2 ± 0.7 | 1172 ± 5 | 1152 ± 5 | 1132 ± 5 | 0.422 ± 0.011 | 0.392 ± 0.011 | 0.364 ± 0.01
x1 = 0.6233 | 889.1 ± 0.7 | 884.2 ± 0.7 | 879.2 ± 0.7 | 1156 ± 5 | 1136 ± 5 | 1116 ± 5 | 0.41 ± 0.011 | 0.38 ± 0.011 | 0.354 ± 0.01
x1 = 0.7211 | 893.6 ± 0.7 | 888.6 ± 0.7 | 883.4 ± 0.7 | 1140 ± 5 | 1120 ± 5 | 1100 ± 5 | 0.399 ± 0.011 | 0.37 ± 0.01 | 0.348 ± 0.01
x1 = 0.8148 | 898.1 ± 0.7 | 893 ± 0.7 | 887.7 ± 0.7 | 1124 ± 5 | 1104 ± 5 | 1084 ± 5 | 0.389 ± 0.011 | 0.364 ± 0.01 | 0.338 ± 0.01
x1 = 0.9088 | 903 ± 0.7 | 897.8 ± 0.7 | 892.3 ± 0.7 | 1108 ± 5 | 1088 ± 5 | 1068 ± 5 | 0.379 ± 0.011 | 0.355 ± 0.01 | 0.329 ± 0.01
x1 = 1 | 907.8 ± 0.7 | 902.6 ± 0.7 | 897.1 ± 0.7 | 1092 ± 5 | 1072 ± 5 | 1052 ± 5 | 0.373 ± 0.011 | 0.345 ± 0.01 | 0.324 ± 0.01
